The source of these data is patent US12172988B2, “Anticancer and antifungal splice modulators” (priority 2021, dated 2024).

What all share (format): cell-based, human
The test system of one experiment is SF3A1. Description: qPCR splicing analysis, SF3A1 intron retention. The note with it: for SF3A1 intron 6 retention (level of intron retention): HCT116, 4 h, 20 times GI50, qPCR relative to GAPDH. Here is the method:
(§1) HCT116 tumor cells were treated with each analogue at 20 times the G150 value (Table 12) for 4 hours and then cellular RNA was isolated and purified for qPCR. Primers were designed to evaluate intron retention or exon skipping, direct responses to splice modulator treatment. Genes evaluated included those involved in splicing regulation (SF3A1, SF3A3, SF3B1, SF3B2), apoptosis (MCL-1L), protein folding (DNAJB1), and cell cycle regulation (AURKA, PLK-1) relative to the unspliced control GAPDH. For alternative splicing regulator (SF2), primers were designed to evaluate gene expression, which changes in response splice modulator treatment for SF2 relative to the unspliced control GAPDH. (−) denotes untreated cells.
as §1, with “analogues” for “each analogue”, “100 nM (light grey), 250 nM (grey), or 500 nM (black)” for “20 times the G150 value (Table 12)”, “24 h” for “4 hours”, “(MCL-1L), and” for “(MCL-1L),”, “(DNAJB1),” for “(DNAJB1), and cell cycle regulation (AURKA, PLK-1)”, “(—)” for “(−)”
(§2) Next, we turned our efforts to explore the ability of these analogues to modulate splicing. […] We treated cells for 4 h so that we could evaluate early changes in splicing activity, and then cellular RNA was isolated and purified for analyses by qPCR (FIG. 14). Most importantly, none of the concentrations tested led to significant changes in cell viability, ensuring that changes in gene expression were not due to cell death.
(§3) For these studies, we evaluated the expression of genes involved in splicing regulation (SF3A1, SF3A3, SF3B1, SF3B2), apoptosis (MCL-1L), protein folding (DNAJB1), and cell cycle regulation (AURKA, PLK-1) relative to the unspliced control GAPDH. Primers were designed to evaluate intron retention or exon skipping, direct responses to splice modulator treatment. The master splicing regulator alternative splicing factor (SF2) was also evaluated, with the primers for this gene designed to evaluate overall gene expression, which changes in response to splice modulator treatment.
(§4) From this 4 h study (FIG. 14), a small set of analogs (1, 1b, 1g, 1d, 1e, 1i and 1j) were selected to evaluate if effects on splicing when presented for a longer 24 h period. […] Using identical procedures as that used for 4 h, HCT116 cells were treated with three concentrations (100 nM, 250 nM and 500 nM) of each analog for 24 h. Multiple concentrations were used as a means to check further validate the use of the GI50 concentration in our prior study (FIG. 14). As before, none of the concentrations tested led to significant changes in cell viability over the 24-hour time window, ensuring that changes in gene expression were not due to cell death.
(§5) Cells were treated with 1 or 1a-1j in media (McCoy's 5a (Life Technologies) supplemented with 10% FBS, 2 mM L-glutamine, and 100 U mL^−1 of penicillin and 100 μg mL^−1 of streptomycin 0.5% DMSO) for 4 h or 24 h. Untreated cells were considered were used as negative control. Total RNA was isolated using mirVana miRNA isolation kit (Life Technologies). A 1 μg sample of RNA was subjected to DNAseI from a TURBO DNA free kit (Life Technologies). The cDNA was prepared by using SuperScript III reverse transcriptase kit (Life Technologies). […]
For orientation: Real-time PCR tracks product formation cycle by cycle.

In another experiment the test system is SF3B2. In words: qPCR splicing analysis, SF3B2 intron retention. As to conditions: for SF3B2 intron retention (level of intron retention): HCT116, 4 h, 20 times GI50, qPCR relative to GAPDH; for SF3B2 intron retention: HCT116, 24 h, 100, 250, 500 nM, compared to 1. How it is done:
as §1
as §1, with “analogues” for “each analogue”, “100 nM (light grey), 250 nM (grey), or 500 nM (black)” for “20 times the G150 value (Table 12)”, “24 h” for “4 hours”, “(MCL-1L), and” for “(MCL-1L),”, “(DNAJB1),” for “(DNAJB1), and cell cycle regulation (AURKA, PLK-1)”, “(—)” for “(−)”
as §2, §3, §4, §5

For the next experiment, the system named is HCT116 tumor cells. Description: qPCR structure-splicing profile over the gene panel. The note with it: HCT116, 24 h, 100, 250, 500 nM, compared to 1. Here is the method: as §1, with “analogues” for “each analogue”, “100 nM (light grey), 250 nM (grey), or 500 nM (black)” for “20 times the G150 value (Table 12)”, “24 h” for “4 hours”, “(MCL-1L), and” for “(MCL-1L),”, “(DNAJB1),” for “(DNAJB1), and cell cycle regulation (AURKA, PLK-1)”, “(—)” for “(−)”
as §3, §4
Cells were treated with 1 or 1a-1j in media (McCoy's 5a (Life Technologies) supplemented with 10% FBS, 2 mM L-glutamine, and 100 U mL^−1 of penicillin and 100 μg mL^−1 of streptomycin 0.5% DMSO) for 4 h or 24 h. Untreated cells were considered were used as negative control. Total RNA was isolated using mirVana miRNA isolation kit (Life Technologies). A 1 μg sample of RNA was subjected to DNAseI from a TURBO DNA free kit (Life Technologies). The cDNA was prepared by using SuperScript III reverse transcriptase kit (Life Technologies). The amount of unspliced RNA for different genes was determined using Power SYBR Green PCR master mix (Applied Biosystems) by qPCR using specific primers for each gene. qPCR using 2.5 μM of each primer was performed on 5 ng of the obtained cDNA. qPCR conditions were as follows: 95° C. for 10 min for one cycle, then 95° C. for 10 min for one cycle, then 95° C. for 30 s, 55° C. for 60 s, 72° C. for 60 s, for 40 cycles using the MXPro. Quantification cycle (Cq) values were identified for each sample, and then RNA levels were calculated using 2-ΔΔCT method. GAPDH was used as a control for normalization. At least three replicates were conducted for each compound. Namely, all genes explored in this study were evaluated from the same cell cultures. Here, individual cultures were used for each compound explored and at least three replicates were used for each compound. While experimental variation occurred between the different compound treatments, the levels of the different intron retention, exon skipping or RNA expression were collected from the same cellular material. Statistics were calculated using a standard one-way ANOVA; p values were represented so that * signifies p<0.0001. HCT116 were treated with analogs 1-1j ranging from 0.1-5000 nM for 72 hours, then cell viability was measured using the MTS assay. GI50 values and confidence intervals were calculated using GraphPad (Table 12).

Consider `CC[C@H](OC)[C@@H](C)[C@H]1O[C@@H]1[C@@H](O)[C@H](C)/C=C/C=C(\C)[C@H]1OC(=O)C[C@H](O)CC[C@@](C)(O)[C@@H](OC(C)=O)/C=C/[C@@H]1C` [Analog 1d, 17S-FD-895], for which the SF3A1 intron retention entry in the experiment with SF3A1 (HCT116, 24 h, 100, 250, 500 nM, compared to 1) was “concentration dependent increased intron retention”. In the experiment on SF3B2, the “SF3B2 intron retention (level of intron retention)” value is “improved efficacy” and the SF3B2 intron retention result is reported as “concentration dependent increased intron retention”. The “splicing activity over the genes tested” value in the experiment with HCT116 tumor cells is listed as “modest switch in gene selectivity”.
For `CC[C@H](OC)[C@@H](C)[C@H]1O[C@@H]1[C@@H](O)[C@H](C)/C=C/C=C(\C)[C@H]1OC(=O)C[C@@H](O)CC[C@@](C)(O)[C@@H](OC(C)=O)/C=C/[C@@H]1C` [Analog 1g, 3S,17S-FD-895], the SF3B2 intron retention entry with SF3B2 is on record as “loss in intron retention”.
On to `CC[C@H](OC)[C@@H](C)[C@@H]1O[C@H]1[C@@H](O)[C@H](C)/C=C/C=C(\C)[C@H]1OC(=O)C[C@H](O)CC[C@@](C)(O)[C@@H](OC(C)=O)/C=C/[C@@H]1C` [Analog 1i, 17S,18S,19S-FD-895], for which, in the experiment on SF3A1, the “SF3A1 intron 6 retention (level of intron retention)” value is on record as “more effective than 1”. Further, the “SF3B2 intron retention (level of intron retention)” value in the experiment with SF3B2 is recorded as “improved efficacy”. Further, the “splicing activity over the genes tested” value in the experiment with HCT116 tumor cells is “drastic reduction in splicing activity”.
For `CC[C@@H](OC)[C@H](C)[C@H]1O[C@@H]1[C@@H](O)[C@H](C)/C=C/C=C(\C)[C@H]1OC(=O)C[C@H](O)CC[C@@](C)(O)[C@@H](OC(C)=O)/C=C/[C@@H]1C` [Analog 1j, 17S,20S,21R-FD-895], the “SF3A1 intron 6 retention (level of intron retention)” value with SF3A1 is reported as “more effective than 1”. Moreover, in the experiment on SF3B2, the “SF3B2 intron retention (level of intron retention)” value is recorded as “improved efficacy”. The “splicing activity over the genes tested” value in the experiment with HCT116 tumor cells was “splicing profile comparable to 1i”.
